Reference: US20260207578A1, “COMPOUND BASED ON SULFUR/OXYGEN SUBSTITUTED GLUTARIMIDE-BASED ISOINDOLINONE SKELETON AND USE THEREOF” (Gluetacs Therapeutics (Shanghai) Co., LTD., priority 2022, published 2026)

Experiments:
[1] = biological target: T1, human Cereblon WT GST-tagged protein (Homo sapiens, UniProt Q96SW2); assay: CRBN-binding affinity, HTRF (CEREBLON BINDING kit); conditions: displacement of Thalidomide-Re reagent, 3 hours at room temperature
T1 construct: purchased CISBIO 64BDCRBNPEH
T1 sequence (Q96SW2 whole entry): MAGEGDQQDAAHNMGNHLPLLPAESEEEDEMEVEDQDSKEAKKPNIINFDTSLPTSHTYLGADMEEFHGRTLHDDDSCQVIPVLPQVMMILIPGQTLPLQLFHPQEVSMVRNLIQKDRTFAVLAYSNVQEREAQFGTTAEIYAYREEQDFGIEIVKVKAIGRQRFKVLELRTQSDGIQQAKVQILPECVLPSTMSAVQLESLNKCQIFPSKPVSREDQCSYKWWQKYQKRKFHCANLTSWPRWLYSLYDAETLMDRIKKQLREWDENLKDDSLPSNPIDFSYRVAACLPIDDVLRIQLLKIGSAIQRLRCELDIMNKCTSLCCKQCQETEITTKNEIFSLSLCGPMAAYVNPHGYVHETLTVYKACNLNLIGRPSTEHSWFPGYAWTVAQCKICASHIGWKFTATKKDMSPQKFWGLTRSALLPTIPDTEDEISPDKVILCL
How it was run: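 HTRF competition format: compound, GST-tagged wild-type human Cereblon, Thalidomide-Re tracer and GST Eu antibody were combined in PROTAC binding buffer. Binding was derived from emission at 620 nm relative to blank and solvent control wells.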

IKZF3 = biological target: T2, IKZF3 (Homo sapiens, UniProt Q96SW2+Q9UKT9); assay: Western-blot assay, substrate protein in hPBMCs; format: cell-based; conditions: hPBMC cells, 24 hours, tested at 50 nM and 500 nM, table does not say which
T2 construct: endogenous in cells; host or cells: human PBMCs (Milecell Biotechnologies)
T2 sequence (Q9UKT9 whole entry): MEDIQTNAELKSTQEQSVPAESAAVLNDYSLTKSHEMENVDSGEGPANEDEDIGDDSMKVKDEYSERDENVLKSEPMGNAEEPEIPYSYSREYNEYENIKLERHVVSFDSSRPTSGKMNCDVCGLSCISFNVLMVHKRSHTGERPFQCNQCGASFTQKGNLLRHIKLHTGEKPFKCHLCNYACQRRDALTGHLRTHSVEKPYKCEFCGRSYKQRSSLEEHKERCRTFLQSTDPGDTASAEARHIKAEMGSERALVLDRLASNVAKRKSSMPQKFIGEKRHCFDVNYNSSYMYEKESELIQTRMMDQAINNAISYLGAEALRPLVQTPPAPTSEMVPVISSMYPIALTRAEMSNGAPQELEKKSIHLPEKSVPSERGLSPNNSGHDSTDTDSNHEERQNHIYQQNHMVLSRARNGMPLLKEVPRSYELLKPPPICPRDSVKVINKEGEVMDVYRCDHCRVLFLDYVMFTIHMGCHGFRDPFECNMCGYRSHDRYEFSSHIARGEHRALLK
T2 sequence (Q96SW2 whole entry): as the sequence (Q96SW2 whole entry) above
T2 sequence (Q16531 whole entry partner): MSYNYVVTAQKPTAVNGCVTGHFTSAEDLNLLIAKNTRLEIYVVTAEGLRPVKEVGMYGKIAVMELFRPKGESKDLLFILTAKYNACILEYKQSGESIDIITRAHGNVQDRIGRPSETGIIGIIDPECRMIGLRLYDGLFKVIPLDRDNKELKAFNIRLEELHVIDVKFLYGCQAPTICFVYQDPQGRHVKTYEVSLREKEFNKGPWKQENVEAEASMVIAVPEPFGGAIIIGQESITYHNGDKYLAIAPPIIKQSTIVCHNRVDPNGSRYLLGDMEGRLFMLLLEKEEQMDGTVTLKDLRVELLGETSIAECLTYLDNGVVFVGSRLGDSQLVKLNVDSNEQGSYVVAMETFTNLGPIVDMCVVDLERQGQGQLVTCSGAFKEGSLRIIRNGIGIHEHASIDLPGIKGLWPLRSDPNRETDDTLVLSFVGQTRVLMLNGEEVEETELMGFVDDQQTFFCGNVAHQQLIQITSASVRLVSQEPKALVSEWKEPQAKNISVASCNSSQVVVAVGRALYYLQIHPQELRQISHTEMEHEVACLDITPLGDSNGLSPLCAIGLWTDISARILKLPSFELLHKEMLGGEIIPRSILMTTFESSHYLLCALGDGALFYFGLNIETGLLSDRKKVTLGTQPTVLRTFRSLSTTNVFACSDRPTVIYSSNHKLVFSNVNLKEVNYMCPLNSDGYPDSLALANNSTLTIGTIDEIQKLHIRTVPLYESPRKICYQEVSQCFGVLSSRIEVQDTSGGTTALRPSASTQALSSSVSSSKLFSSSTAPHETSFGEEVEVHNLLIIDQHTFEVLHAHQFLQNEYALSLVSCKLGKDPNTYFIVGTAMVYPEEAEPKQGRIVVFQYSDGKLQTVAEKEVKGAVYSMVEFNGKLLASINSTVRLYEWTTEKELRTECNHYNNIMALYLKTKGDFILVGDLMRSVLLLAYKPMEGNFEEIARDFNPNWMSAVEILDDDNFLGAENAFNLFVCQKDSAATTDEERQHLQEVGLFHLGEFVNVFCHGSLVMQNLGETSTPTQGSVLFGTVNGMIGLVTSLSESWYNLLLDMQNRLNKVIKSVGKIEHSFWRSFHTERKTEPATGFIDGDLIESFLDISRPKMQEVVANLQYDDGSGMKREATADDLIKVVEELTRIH
Protocol: (§1) The effect of the compounds of the present disclosure on the expression of target proteins in cells was detected using conventional Western blot analysis.
(§2) Human peripheral blood mononuclear cells (hPBMCs) at a density of 1×10^6 cells/mL were thawed according to the PBMC Recovery Protocol (Milecell Biotechnologies Inc, Shanghai). The cells were then treated with the compounds of the present disclosure (including the compounds listed in Tables 1 and 2, and the Examples A1-A20 and 1-116 compounds) at concentrations of 50 nM and 500 nM.
(§3) Controls included a negative control (DMSO) and a positive control (the commercial immunomodulatory drug lenalidomide), both processed following the identical experimental protocol as the compounds of the present disclosure. After 24 hours of compounds treatment, cells were harvested and lysed in RIPA protein lysate containing phosphatase inhibitors on ice for 30-60 min, followed by centrifugation. The supernatant was aspirated as the extracted total cell protein. The protein concentration of the supernatant was determined using the conventional BCA (Bicinchoninic Acid) assay. The supernatant was then mixed with 4× SDS sample loading buffer, denatured at 95° C. for 5 minutes, and then subjected to SDS-PAGE electrophoresis on a polyacrylamide gel. Proteins were then transferred to a nitrocellulose (NC) membrane, blocked at room temperature for 1-2 h, and processed for antibody incubation and detection according to the manufacturer's instructions (Cell Signaling Technology).
(§4) Half-Maximal Degradation Concentration value (the drug concentration required for degrading proteins by 50%, abbreviated as DC50) reads method: comparing the grayscale values of Western blot bands from drug-treated samples with those from blank DMSO-treated controls, and identifying the drug concentration range at which the grayscale value is half that of the DMSO-treated control bands.
(§5) DC50 values can be calculated using ImageJ software to measure grayscale values of Western blot bands from drug-treated samples. The concentration-response curve is fitted to estimate the drug concentration corresponding to half the grayscale value.
(§6) Target protein remaining (%) refers to the percentage of target protein remaining in hPBMC cells after treatment with protein degrader compounds.
(§7) Calculation method for protein remaining (%): Use ImageJ software to measure grayscale values of Western blot bands from drug (protein degrader)-treated samples. The grayscale value of drug-treated bands is divided by that of internal control protein bands, and the resulting quotient is normalized to obtain the relative percentage of remaining target protein after protein degrader treatment.
(§8) Target protein degradation rate (%)=100%−target protein remaining (%).

IKZF2 = biological target: T3, IKZF2 (Homo sapiens, UniProt Q96SW2+Q9UKS7); assay: Western-blot assay, substrate protein in hPBMCs; format: cell-based; conditions: hPBMC cells, 24 hours, tested at 50 nM and 500 nM, table does not say which
T3 construct: endogenous in cells; host or cells: human PBMCs (Milecell Biotechnologies)
T3 sequence (Q9UKS7 whole entry): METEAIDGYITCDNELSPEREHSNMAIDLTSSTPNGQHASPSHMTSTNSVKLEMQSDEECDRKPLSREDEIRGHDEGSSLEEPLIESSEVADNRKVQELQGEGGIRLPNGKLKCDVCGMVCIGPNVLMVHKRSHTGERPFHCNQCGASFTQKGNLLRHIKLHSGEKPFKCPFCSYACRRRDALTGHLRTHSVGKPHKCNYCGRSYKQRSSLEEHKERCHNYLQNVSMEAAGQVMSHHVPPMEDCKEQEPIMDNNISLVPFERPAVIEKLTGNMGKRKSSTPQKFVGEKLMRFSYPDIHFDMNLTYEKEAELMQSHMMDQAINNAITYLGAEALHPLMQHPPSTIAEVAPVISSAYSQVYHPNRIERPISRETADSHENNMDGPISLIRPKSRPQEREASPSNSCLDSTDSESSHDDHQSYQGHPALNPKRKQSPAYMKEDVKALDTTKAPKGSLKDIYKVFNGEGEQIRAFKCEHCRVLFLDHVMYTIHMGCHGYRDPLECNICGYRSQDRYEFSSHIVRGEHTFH
T3 sequence (Q96SW2 whole entry): as the sequence (Q96SW2 whole entry) above
T3 sequence (Q16531 whole entry partner): as the sequence (Q16531 whole entry partner) above
How it was run: (§9)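 Protein levels read by Western blot of lysates from human PBMCs (1×10^6 cells/mL) treated 24 h. Percent remaining is target band over loading-control band, normalised to DMSO-treated cells; DC50 is the concentration halving DMSO-control band intensity, estimated by curve fit.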

CK1α = biological target: T4, CK1α (Homo sapiens, UniProt P48729+Q96SW2); assay: Western-blot assay, substrate protein in hPBMCs; format: cell-based; conditions: hPBMC cells, 24 hours, tested at 50 nM and 500 nM, table does not say which
T4 construct: endogenous in cells; host or cells: human PBMCs (Milecell Biotechnologies)
T4 sequence (P48729 whole entry): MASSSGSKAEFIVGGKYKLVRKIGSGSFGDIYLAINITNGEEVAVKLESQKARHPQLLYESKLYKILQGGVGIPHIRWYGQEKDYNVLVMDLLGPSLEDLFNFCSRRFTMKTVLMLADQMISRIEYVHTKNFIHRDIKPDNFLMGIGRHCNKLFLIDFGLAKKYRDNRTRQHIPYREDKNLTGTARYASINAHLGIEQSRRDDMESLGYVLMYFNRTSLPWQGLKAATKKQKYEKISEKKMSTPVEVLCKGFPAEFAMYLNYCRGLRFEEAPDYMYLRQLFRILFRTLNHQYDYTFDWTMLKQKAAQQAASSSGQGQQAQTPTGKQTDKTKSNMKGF
T4 sequence (Q96SW2 whole entry): as the sequence (Q96SW2 whole entry) above
T4 sequence (Q16531 whole entry partner): as the sequence (Q16531 whole entry partner) above
How it was run: as §9

GSPT1 = biological target: T5, GSPT1 (Homo sapiens, UniProt P15170+Q96SW2); assay: Western-blot assay, substrate protein in hPBMCs; format: cell-based; conditions: hPBMC cells, 24 hours, tested at 50 nM and 500 nM, table does not say which
T5 construct: endogenous in cells; host or cells: human PBMCs (Milecell Biotechnologies)
T5 sequence (P15170 whole entry): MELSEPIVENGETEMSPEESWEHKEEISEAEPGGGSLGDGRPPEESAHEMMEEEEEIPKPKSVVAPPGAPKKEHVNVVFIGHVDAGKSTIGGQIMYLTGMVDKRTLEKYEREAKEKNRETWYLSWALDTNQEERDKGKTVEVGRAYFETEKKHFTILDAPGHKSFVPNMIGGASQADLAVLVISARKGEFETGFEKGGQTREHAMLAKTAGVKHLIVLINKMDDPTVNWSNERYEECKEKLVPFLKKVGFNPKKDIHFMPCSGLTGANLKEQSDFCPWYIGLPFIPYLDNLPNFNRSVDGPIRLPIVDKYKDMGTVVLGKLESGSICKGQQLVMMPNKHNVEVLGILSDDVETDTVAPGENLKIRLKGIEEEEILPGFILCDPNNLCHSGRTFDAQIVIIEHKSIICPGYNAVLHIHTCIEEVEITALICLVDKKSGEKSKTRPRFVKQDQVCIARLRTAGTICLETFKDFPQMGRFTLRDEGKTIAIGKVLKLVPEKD
T5 sequence (Q96SW2 whole entry): as the sequence (Q96SW2 whole entry) above
T5 sequence (Q16531 whole entry partner): as the sequence (Q16531 whole entry partner) above
How it was run: as §9

Wee1 = biological target: T6, Wee1 (Homo sapiens, UniProt P30291+Q96SW2); assay: Western-blot assay, substrate protein in hPBMCs; format: cell-based; conditions: hPBMC cells, 24 hours, tested at 50 nM and 500 nM, table does not say which
T6 construct: endogenous in cells; host or cells: human PBMCs (Milecell Biotechnologies)
T6 sequence (P30291 whole entry): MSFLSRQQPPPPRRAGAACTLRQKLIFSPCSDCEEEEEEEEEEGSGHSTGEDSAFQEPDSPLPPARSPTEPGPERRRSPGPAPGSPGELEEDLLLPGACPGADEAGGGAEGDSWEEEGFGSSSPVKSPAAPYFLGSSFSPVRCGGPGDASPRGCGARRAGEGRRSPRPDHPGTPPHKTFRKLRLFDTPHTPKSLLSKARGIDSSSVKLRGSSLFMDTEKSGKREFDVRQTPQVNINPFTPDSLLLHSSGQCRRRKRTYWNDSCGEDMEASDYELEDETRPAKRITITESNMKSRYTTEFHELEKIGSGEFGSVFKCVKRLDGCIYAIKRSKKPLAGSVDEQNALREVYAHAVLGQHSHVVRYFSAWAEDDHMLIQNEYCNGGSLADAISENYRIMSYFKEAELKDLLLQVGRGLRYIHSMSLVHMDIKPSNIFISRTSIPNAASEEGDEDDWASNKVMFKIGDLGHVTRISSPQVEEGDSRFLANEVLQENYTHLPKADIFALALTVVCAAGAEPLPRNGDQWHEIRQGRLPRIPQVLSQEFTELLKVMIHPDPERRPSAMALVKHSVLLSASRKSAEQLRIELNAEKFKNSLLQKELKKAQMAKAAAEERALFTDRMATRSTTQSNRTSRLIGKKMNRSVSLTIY
T6 sequence (Q96SW2 whole entry): as the sequence (Q96SW2 whole entry) above
T6 sequence (Q16531 whole entry partner): as the sequence (Q16531 whole entry partner) above
How it was run: as §9

IKZF1 = biological target: T7, IKZF1 (Homo sapiens, UniProt Q13422+Q96SW2); assay: Western-blot assay, substrate protein in hPBMCs; format: cell-based; conditions: hPBMC cells, 24 hours, tested at 50 nM and 500 nM, table does not say which
T7 construct: endogenous in cells; host or cells: human PBMCs (Milecell Biotechnologies)
Protocol: as §1, §2, §3, §4, §5, §6, §7, §8

| IC50 [1] [nM] | SMILES | substrate protein remaining % (IKZF3) | substrate protein remaining % (IKZF2) | substrate protein remaining % (CK1α) | substrate protein remaining % (GSPT1) | substrate protein remaining % (Wee1) | substrate protein remaining % (IKZF1) |
| --- | --- | --- | --- | --- | --- | --- | --- |
| 500 to 1000 | CC1(C)CCC(C(=O)N2C[C@H]3CC(Sc4ccc5c(c4)CN(C4CCC(=O)NC4=O)C5=O)C[C@H]3C2)=C(c2ccc(Cl)cc2)C1 (stereo partly drawn) [GT-07015, 3-(5-(((3aR,6aS)-2-(4′-chloro-5,5-dimethyl-3,4,5,6-tetrahydro-[1,1′-biphenyl]-2-carbonyl)octahydro-cyclopenta[c]pyrrol-5-yl)thio)-1-oxoisoindolin-2-yl)piperidine-2,6-dione] | A (0%≤ substrate protein remaining % ≤80%) | A (0%≤ substrate protein remaining % ≤80%) |  |  |  |  |
| < 500 | O=C1CCC(N2Cc3cc(SC4CCC5(CC4)CCN(C(c4ccccc4)c4ccccc4)CC5)ccc3C2=O)C(=O)N1 (stereo not drawn) [GT-06958, 3-(5-((3-benzhydryl-3-azaspiro[5.5]undecan-9-yl)thio)-1-oxoisoindolin-2-yl)piperidine-2,6-dione] | A (0%≤ substrate protein remaining % ≤80%) |  | A (0%≤ substrate protein remaining % ≤80%) | A (0%≤ substrate protein remaining % ≤80%) | A (0%≤ substrate protein remaining % ≤80%) |  |
| 500 to 1000 | CC1(C)CCC(C(=O)N2C[C@H]3CC(Sc4ccc5c(c4)CN(C4CCC(=O)NC4=O)C5=O)C[C@@H]3C2)=C(c2ccc(Cl)cc2)C1 (stereo partly drawn) [GT-07022, 3-(5-(((3aS,6aS)-2-(4′-chloro-5,5-dimethyl-3,4,5,6-tetrahydro-[1,1′-biphenyl]-2-carbonyl)octahydro-cyclopenta[c]pyrrol-5-yl)thio)-1-oxoisoindolin-2-yl)piperidine-2,6-dione] | A (0%≤ substrate protein remaining % ≤80%) |  | A (0%≤ substrate protein remaining % ≤80%) |  |  |  |
| 500 to 1000 | O=C1CCC(N2Cc3cc(OC4CN(CC5=C(c6ccc(F)cc6)CCOC5)C4)ccc3C2=O)C(=O)N1 (stereo not drawn) [GT-06560, 3-(5-((1-((4-(4-fluorophenyl)-5,6-dihydro-2H-pyran-3-yl)methyl)azetidin-3-yl)oxy)-1-oxoisoindolin-2-yl)piperidine-2,6-dione] | A (0%≤ substrate protein remaining % ≤80%) |  |  |  | A (0%≤ substrate protein remaining % ≤80%) |  |
| 500 to 1000 | O=C1CCC(N2Cc3cc(SC4CN(Cc5ccc(-c6ccncc6)nc5)C4)ccc3C2=O)C(=O)N1 (stereo not drawn) [GT-06808, 3-(5-((1-([2,4′-bipyridin]-5-ylmethyl)azetidin-3-yl)thio)-1-oxoisoindolin-2-yl)piperidine-2,6-dione] |  | A (0%≤ substrate protein remaining % ≤80%) | A (0%≤ substrate protein remaining % ≤80%) |  | A (0%≤ substrate protein remaining % ≤80%) | A (0%≤ substrate protein remaining % ≤80%) |
| < 500 | O=C1CCC(N2Cc3cc(OC4CN(C(c5ccccc5)c5ccccc5)C4)ccc3C2=O)C(=O)N1 (stereo not drawn) [GT-06185, 3-(5-((1-benzhydrylazetidin-3-yl)oxy)-1-oxoisoindolin-2-yl)piperidine-2,6-dione] | A (0%≤ substrate protein remaining % ≤80%) | A (0%≤ substrate protein remaining % ≤80%) |  | A (0%≤ substrate protein remaining % ≤80%) |  |  |
| < 500 | O=C1CCC(N2Cc3cc(OC4CN(C(c5ccccn5)c5ccccn5)C4)ccc3C2=O)C(=O)N1 (stereo not drawn) [GT-06814, 3-(5-((1-(di(pyridin-2-yl)methyl)azetidin-3-yl)oxy)-1-oxoisoindolin-2-yl)piperidine-2,6-dione] | A (0%≤ substrate protein remaining % ≤80%) | A (0%≤ substrate protein remaining % ≤80%) | A (0%≤ substrate protein remaining % ≤80%) | A (0%≤ substrate protein remaining % ≤80%) | A (0%≤ substrate protein remaining % ≤80%) |  |
| < 500 | COc1ccc(C(c2ccc(OC)cc2)N2CC(Oc3ccc4c(c3)CN(C3CCC(=O)NC3=O)C4=O)C2)cc1 (stereo not drawn) [GT-06959, 3-(5-((1-(bis(4-methoxyphenyl)methyl)azetidin-3-yl)oxy)-1-oxoisoindolin-2-yl)piperidine-2,6-dione] | A (0%≤ substrate protein remaining % ≤80%) |  | A (0%≤ substrate protein remaining % ≤80%) | A (0%≤ substrate protein remaining % ≤80%) | A (0%≤ substrate protein remaining % ≤80%) |  |
| < 500 | O=C1CCC(N2Cc3cc(OC4CCN(C(c5ccccc5)c5ccccc5)C4)ccc3C2=O)C(=O)N1 (stereo not drawn) [GT-06819, 3-(5-((1-benzhydrylpyrrolidin-3-yl)oxy)-1-oxoisoindolin-2-yl)piperidine-2,6-dione] | A (0%≤ substrate protein remaining % ≤80%) | A (0%≤ substrate protein remaining % ≤80%) | A (0%≤ substrate protein remaining % ≤80%) | A (0%≤ substrate protein remaining % ≤80%) | A (0%≤ substrate protein remaining % ≤80%) |  |
| 500 to 1000 | CC1(C)CCC(CN2CCCC(Oc3ccc4c(c3)CN(C3CCC(=O)NC3=O)C4=O)CC2)=C(c2ccc(Cl)cc2)C1 (stereo not drawn) [GT-06929, 3-(5-((1-((4′-chloro-5,5-dimethyl-3,4,5,6-tetrahydro-[1,1′-biphenyl]-2-yl)methyl)azepan-4-yl)oxy)-1-oxoisoindolin-2-yl)piperidine-2,6-dione] | A (0%≤ substrate protein remaining % ≤80%) | A (0%≤ substrate protein remaining % ≤80%) |  |  | A (0%≤ substrate protein remaining % ≤80%) |  |
| 500 to 1000 | O=C1CCC(N2Cc3cc(SC4CCN(C(c5ccccc5)c5ccccc5)CC4)ccc3C2=O)C(=O)N1 (stereo not drawn) [GT-06184, 3-(5-((1-benzhydrylpiperidin-4-yl)thio)-1-oxoisoindolin-2-yl)piperidine-2,6-dione] | A (0%≤ substrate protein remaining % ≤80%) |  |  | A (0%≤ substrate protein remaining % ≤80%) |  |  |
| < 500 | O=C1CCC(N2Cc3cc(SC4CNC4)ccc3C2=O)C(=O)N1 (stereo not drawn) [GT-03613, 3-(5-(azetidin-3-ylthio)-1-oxoisoindolin-2-yl)piperidine-2,6-dione] |  | A (0%≤ substrate protein remaining % ≤80%) | A (0%≤ substrate protein remaining % ≤80%) | A (0%≤ substrate protein remaining % ≤80%) | A (0%≤ substrate protein remaining % ≤80%) | A (0%≤ substrate protein remaining % ≤80%) |
| < 500 | O=C1CCC(N2Cc3cc(SC4CCN(C(=O)c5ccccc5-c5ccc(Cl)cc5)C4)ccc3C2=O)C(=O)N1 (stereo not drawn) [GT-06181, 3-(5-((1-(4′-chloro-[1,1′-biphenyl]-2-carbonyl)pyrrolidin-3-yl)thio)-1-oxoisoindolin-2-yl)piperidine-2,6-dione] | A (0%≤ substrate protein remaining % ≤80%) |  |  | A (0%≤ substrate protein remaining % ≤80%) | A (0%≤ substrate protein remaining % ≤80%) |  |
